Patent US12371454B2, “Cyclic peptide compound having Kras inhibitory action” (priority 2019, dated 2025)
Starred links: 1 amine or outer side, 2 acyl side, 3 side chain; linkers in the order of their positions; H or OH if unused. Positions of bridges follow the written chain, without caps; N, C: chain ends. Non-standard residues stand in square brackets, D forms with d. Residues, ends and D or L forms follow the SMILES beside them. *: point of attachment. hPhe(3-Cl-4-CF3) = N[C@@H](CCc1ccc(C(F)(F)F)c(Cl)c1)C(=O)O; NMePhe(4-CF3) = CN[C@@H](Cc1ccc(C(F)(F)F)cc1)C(=O)O; X15 = COc1cc(CC[C@H](N[*:1])C(=O)[*:2])cc(Cl)c1Cl; 3Oxa8azabicyclo(3.2.1)octane = C1CC2COCC1N2*; NMeAbu(4,4,4-F3) = CN[C@@H](CC(F)(F)F)C(=O)O; NMeMet(O2) = CN[C@@H](CCS(C)(=O)=O)C(=O)O; NMePhe(2-Me) = CN[C@@H](Cc1ccccc1C)C(=O)O; NMedβ3hAla = C[C@H](CC(=O)[*:2])N(C)[*:1]; NMeAla(cPent) = CN[C@@H](CC1CCCC1)C(=O)O; NMeGly(cPent) = CN[C@H](C(=O)O)C1CCCC1; NMe4Pal = CN[C@@H](Cc1ccncc1)C(=O)O; Gly(cPent) = N[C@H](C(=O)O)C1CCCC1; NMeCha = CN[C@@H](CC1CCCCC1)C(=O)O; NMeChg = CN[C@H](C(=O)O)C1CCCCC1; NMeI = CC[C@H](C)[C@H](NC)C(=O)O; NMeD = CN[C@@H](CC(=O)O)C(=O)O; NMeL = CN[C@@H](CC(C)C)C(=O)O; NMeNva = CCC[C@H](NC)C(=O)O; NMeV = CN[C@H](C(=O)O)C(C)C; d(β3hA) = C[C@@H](N)CC(=O)O; NMeS = CN[C@@H](CO)C(=O)O; NMeA = CN[C@@H](C)C(=O)O; Piperidide = C1CCN(*)CC1; Pyrrolidide = C1CCN(*)C1; Ac5c = NC1(C(=O)O)CCCC1; Aze = O=C(O)[C@@H]1CCN1; Sar = CNCC(=O)O; Propyl = CCC*

Legend:
[1] = system: Human pancreatic cancer cell line AsPC-1; assay: Measurement of AsPC-1 cell growth inhibition (AsPC-1 CGI); format: cell-based; settings: 96 h
How it was run: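 AsPC-1 cells in 15% FBS RPMI-1640 were exposed to test compound for 96 hours at 37° C, with CellTiter-Glo as endpoint.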

[2] = target: T1, Kras and SOS1 (biotin-tagged human Kras loaded with GDP, His-tagged human SOS1) (Homo sapiens, UniProt P01116, G12D); assay: Protein-protein interaction inhibition between Kras and SOS1 (KrasGl2D-SOS PPI) using AlphaScreen; format: binding; settings: AlphaScreen; biotin-tagged human Kras loaded with GDP, His-tagged human SOS1; read-out: KRAS G12D-SOS PPI IC50
T1 construct: made in house; host or cells: E. coli (stated for Kras only)
How it was run: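 Read-out is acceptor-bead light at 520-620 nm, arising when 680 nm-irradiated nickel donor beads pass singlet oxygen to streptavidin acceptors. The bead pair links His-tagged SOS1 with biotin-tagged, GDP-bound Kras from E. coli.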

T1 sequence (P01116 1-188 isoform P01116-2 G12D): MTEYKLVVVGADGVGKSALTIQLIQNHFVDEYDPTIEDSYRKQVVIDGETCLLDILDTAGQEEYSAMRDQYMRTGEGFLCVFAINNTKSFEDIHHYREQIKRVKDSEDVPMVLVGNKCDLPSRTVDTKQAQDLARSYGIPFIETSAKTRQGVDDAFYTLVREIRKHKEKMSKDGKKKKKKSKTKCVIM

`CC[C@H](C)[C@@H]1NC(=O)[C@H](CC(C)C)N(C)C(=O)C[C@@H](C(=O)N2CCCCC2)N(C)C(=O)[C@H]([C@@H](C)CC)N(C)C(=O)C2(CCCC2)NC(=O)[C@@H]2CCCN2C(=O)[C@H](CCc2ccc(C(F)(F)F)c(Cl)c2)NC(=O)CN(C)C(=O)[C@H](CC2CCCCC2)N(C)C(=O)CN(C)C(=O)CN(C)C1=O` [Compound 311] ([NMeL]I[Sar][Sar][NMeCha][Sar][hPhe(3-Cl-4-CF3)]P[Ac5c][NMeI][NMeD]-Piperidide; lactam N-11) showed an IC50 [1] of 20 to 50 nM and an IC50 [2] of 5.9 nM.
`CC[C@H](C)[C@@H]1NC(=O)[C@H](C)N(C)C(=O)C[C@@H](C(=O)N2CCCCC2)N(C)C(=O)[C@H](C2CCCCC2)N(C)C(=O)C2(CCCC2)NC(=O)[C@@H]2CCCN2C(=O)[C@H](CCc2cc(Cl)c(Cl)c(OC)c2)NC(=O)CN(C)C(=O)[C@H](CC2CCCCC2)N(C)C(=O)CN(C)C(=O)CN(C)C1=O` [Compound 2081] ([NMeA]I[Sar][Sar][NMeCha][Sar][X15]P[Ac5c][NMeChg][NMeD]-Piperidide; lactam N-11) was tested, and the IC50 [1] was greater than 500 nM and the IC50 [2] was 2 nM.
`CC[C@H](C)[C@@H]1NC(=O)[C@H](CC(C)C)N(C)C(=O)C[C@@H](C(=O)N2CCCC2)N(C)C(=O)[C@H](C(C)C)N(C)C(=O)C2(CCCC2)NC(=O)[C@@H]2CCCN2C(=O)[C@H](CCc2ccc(C(F)(F)F)c(Cl)c2)NC(=O)CN(C)C(=O)[C@H](CC2CCCC2)N(C)C(=O)CN(C)C(=O)CN(C)C1=O` [Compound 1699] ([NMeL]I[Sar][Sar][NMeAla(cPent)][Sar][hPhe(3-Cl-4-CF3)]P[Ac5c][NMeV][NMeD]-Pyrrolidide; lactam N-11) gave an IC50 [1] of 100 to 500 nM and an IC50 [2] of 1.1 nM.
`CC(C)C[C@H]1C(=O)N[C@@H](C2CCCC2)C(=O)N(C)CC(=O)N(C)CC(=O)N(C)[C@@H](CC2CCCCC2)C(=O)N(C)CC(=O)N[C@@H](CCc2ccc(C(F)(F)F)c(Cl)c2)C(=O)N2CCC[C@H]2C(=O)NC2(CCCC2)C(=O)N(C)[C@@H](C2CCCCC2)C(=O)N(C)[C@H](C(=O)N2CCCCC2)CC(=O)N1C` [Compound 1824] ([NMeL][Gly(cPent)][Sar][Sar][NMeCha][Sar][hPhe(3-Cl-4-CF3)]P[Ac5c][NMeChg][NMeD]-Piperidide; lactam N-11) showed an IC50 [1] of 50 to 100 nM and an IC50 [2] of 0.75 nM.
In the case of `CC[C@H](C)[C@@H]1NC(=O)[C@H](CC(C)C)N(C)C(=O)C[C@@H](C(=O)N2CCCCC2)N(C)C(=O)[C@H](C2CCCCC2)N(C)C(=O)C2(CCCC2)NC(=O)[C@H](Cc2ccncc2)N(C)C(=O)[C@H](CCc2ccc(C(F)(F)F)c(Cl)c2)NC(=O)CN(C)C(=O)[C@H](CC2CCCCC2)N(C)C(=O)[C@@H]2CCN2C(=O)CN(C)C1=O` [Compound 480] ([NMeL]I[Sar][Aze][NMeCha][Sar][hPhe(3-Cl-4-CF3)][NMe4Pal][Ac5c][NMeChg][NMeD]-Piperidide; lactam N-11), the IC50 [1] is reported as 100 to 500 nM and the IC50 [2] is reported as 1.4 nM.
`CCCOC[C@H]1C(=O)N(C)CC(=O)N[C@@H](CCc2ccc(C(F)(F)F)c(Cl)c2)C(=O)N2CCC[C@H]2C(=O)NC2(CCCC2)C(=O)N(C)[C@@H](C2CCCCC2)C(=O)N(C)[C@H](C(=O)N2CCCC2)CC(=O)N(C)[C@@H](CCC)C(=O)N[C@@H]([C@@H](C)CC)C(=O)N(C)CC(=O)N(C)CC(=O)N1C` [Compound 2005] ([NMeNva]I[Sar][Sar][NMeS](Propyl)[Sar][hPhe(3-Cl-4-CF3)]P[Ac5c][NMeChg][NMeD]-Pyrrolidide; lactam N-11) was tested, and the IC50 [1] was 50 to 100 nM and the IC50 [2] was 0.64 nM.
`CC[C@H](C)[C@@H]1NC(=O)[C@H](CC(C)C)N(C)C(=O)C[C@@H](C(=O)N2C3CCC2COC3)N(C)C(=O)[C@H](C2CCCCC2)N(C)C(=O)C2(CCCC2)NC(=O)[C@@H]2CCCN2C(=O)[C@H](CCc2ccc(C(F)(F)F)c(Cl)c2)NC(=O)CN(C)C(=O)[C@H](CC2CCCC2)N(C)C(=O)CN(C)C(=O)CN(C)C1=O` [Compound 1976] ([NMeL]I[Sar][Sar][NMeAla(cPent)][Sar][hPhe(3-Cl-4-CF3)]P[Ac5c][NMeChg][NMeD]-{3Oxa8azabicyclo(3.2.1)octane}; lactam N-11) showed an IC50 [1] of 100 to 500 nM and an IC50 [2] of 1.5 nM.
Work on `CC[C@H](C)[C@@H]1NC(=O)[C@H](CC(F)(F)F)N(C)C(=O)C[C@@H](C(=O)N2CCCC2)N(C)C(=O)[C@H](C2CCCCC2)N(C)C(=O)C2(CCCC2)NC(=O)[C@@H]2CCCN2C(=O)[C@H](CCc2ccc(C(F)(F)F)c(Cl)c2)NC(=O)CN(C)C(=O)[C@H](CC2CCCC2)N(C)C(=O)CN(C)C(=O)CN(C)C1=O` [Compound 326] ([NMeAbu(4,4,4-F3)]I[Sar][Sar][NMeAla(cPent)][Sar][hPhe(3-Cl-4-CF3)]P[Ac5c][NMeChg][NMeD]-Pyrrolidide; lactam N-11) yielded an IC50 [1] of 50 to 100 nM and an IC50 [2] of 0.7 nM.
For `CC[C@H](C)[C@@H]1NC(=O)[C@H](CC(C)C)N(C)C(=O)C[C@@H](C)N(C)C(=O)[C@H](C(C)C)N(C)C(=O)C2(CCCC2)NC(=O)[C@@H]2CCCN2C(=O)[C@H](CCc2ccc(C(F)(F)F)c(Cl)c2)NC(=O)CN(C)C(=O)[C@H](Cc2ccccc2C)N(C)C(=O)CN(C)C(=O)CN(C)C1=O` [Compound 1550] (cyclo([Ac5c][NMeV][NMedβ3hAla][NMeL]I[Sar][Sar][NMePhe(2-Me)][Sar][hPhe(3-Cl-4-CF3)]P)), the IC50 [1] was 50 to 100 nM and the IC50 [2] was 19 nM.
With `CC[C@H](C)[C@@H]1NC(=O)[C@H](C)N(C)C(=O)C[C@@H](C)NC(=O)[C@H](C2CCCC2)N(C)C(=O)C2(CCCC2)NC(=O)[C@@H]2CCCN2C(=O)[C@H](CCc2ccc(C(F)(F)F)c(Cl)c2)NC(=O)CN(C)C(=O)[C@H](Cc2ccc(C(F)(F)F)cc2)N(C)C(=O)CN(C)C(=O)CN(C)C1=O` [Compound 1523] (cyclo([Ac5c][NMeGly(cPent)][d(β3hA)][NMeA]I[Sar][Sar][NMePhe(4-CF3)][Sar][hPhe(3-Cl-4-CF3)]P)) the IC50 [1] was 100 to 500 nM and the IC50 [2] was 0.75 nM.
For `CC[C@H](C)[C@@H]1NC(=O)[C@H](C2CCCCC2)N(C)C(=O)C[C@@H](C(=O)N2CCCCC2)N(C)C(=O)[C@H](C(C)C)N(C)C(=O)C2(CCCC2)NC(=O)[C@@H]2CCCN2C(=O)[C@H](CCc2ccc(C(F)(F)F)c(Cl)c2)NC(=O)CN(C)C(=O)[C@H](CC2CCCCC2)N(C)C(=O)CN(C)C(=O)CN(C)C1=O` [Compound 106] ([NMeChg]I[Sar][Sar][NMeCha][Sar][hPhe(3-Cl-4-CF3)]P[Ac5c][NMeV][NMeD]-Piperidide; lactam N-11), the IC50 [1] was 100 to 500 nM and the IC50 [2] was 8.9 nM.
`CC[C@H](C)[C@@H]1NC(=O)[C@H](CCS(C)(=O)=O)N(C)C(=O)C[C@@H](C(=O)N2CCCCC2)N(C)C(=O)[C@H](C2CCCCC2)N(C)C(=O)C2(CCCC2)NC(=O)[C@@H]2CCCN2C(=O)[C@H](CCc2ccc(C(F)(F)F)c(Cl)c2)NC(=O)CN(C)C(=O)[C@H](CC2CCCCC2)N(C)C(=O)CN(C)C(=O)CN(C)C1=O` [Compound 52] ([NMeMet(O2)]I[Sar][Sar][NMeCha][Sar][hPhe(3-Cl-4-CF3)]P[Ac5c][NMeChg][NMeD]-Piperidide; lactam N-11) gave an IC50 [1] of 100 to 500 nM and an IC50 [2] of 0.66 nM.
In the case of `CC[C@H](C)[C@@H]1NC(=O)[C@H](C)N(C)C(=O)C[C@@H](C(=O)N2CCCC2)N(C)C(=O)[C@H](C2CCCCC2)N(C)C(=O)C2(CCCC2)NC(=O)[C@@H]2CCCN2C(=O)[C@H](CCc2ccc(C(F)(F)F)c(Cl)c2)NC(=O)CN(C)C(=O)[C@H](CC2CCCCC2)N(C)C(=O)CN(C)C(=O)CN(C)C1=O` [Compound 1720] ([NMeA]I[Sar][Sar][NMeCha][Sar][hPhe(3-Cl-4-CF3)]P[Ac5c][NMeChg][NMeD]-Pyrrolidide; lactam N-11), the IC50 [1] is reported as 50 to 100 nM and the IC50 [2] is reported as 0.58 nM.
